The compounds below were run on human SIRT6 promoter (assay: SIRT6 promoter activity in Caco-2-SIRT6p-EGFP reporter cells). Details: Caco-2-SIRT6p-EGFP cells, 10 μM test component, two days after addition, EGFP fluorescence, relative ratio to control (PBS); FIG. 1.
Format: cell-based
Text: The human SIRT6 promoter region (from −1105 to −1 bp; SEQ ID NO: 1) was amplified by PCR using KOD FX (TOYOBO, Tokyo, Japan) with genomic DNA derived from human fetal fibroblast TIG-1 as a template. Primers used were obtained by adding restriction endonuclease recognition sequences of AseI and NheI to the ends based on the reported base sequence information of the hSIRT6 promoter. Specifically, […] designed as SIRT6p-AseI ([…]: SEQ ID NO: 2) and SIRT6p-NheI ([…]: SEQ ID NO: 3) were used. KOD FX (TOYOBO) was used as the DNA polymerase, and PCR was performed under reaction conditions of 40 cycles with one cycle of 94° C. for 2 minutes, 98° C. for 10 seconds, and 68° C. for 1 minute.
The SIRT6 promoter fragment obtained by PCR was TA-cloned into a pGEM-T Easy Vector (Promega Corporation). In addition, the base sequence was confirmed by sequencing. The SIRT6 promoter fragment incorporated into the pGEM-T Easy vector was excised by digestion with restriction enzymes AseI and NheI and inserted into a site of EGFP-C3 (available from Takara Bio Inc.) from which the CMV promoter had been removed by AseI and NheI digestion, and pSIRT6p-EGFP was obtained.
Transfection was performed using HilyMax available from DOJINDO in accordance with its protocol. On the day before transfection, 6.0×10^5 cells of Caco-2 cells (human colon cancer-derived cells; obtained from RIKEN BioResource Research Center) were seeded in a 5-mL dish. On the day of transfection, pSIRT6p-EGFP (15 μg) was diluted with DMEM medium containing 10% FBS to a volume of 300 μL in a 1.5-mL tube, then 70 μL of Hilymax was added to the tube, and the mixture was incubated at room temperature for 20 minutes. Thereafter, the whole amount was added to Caco-2 cells and cultured for 48 hours.
Based on the fact that pSIRT6p-EGFP is resistant to the drug G418 (available from Wako Pure Chemical Industries, Ltd.), drug selection was performed by adding the drug G418 to transfected cells to a final concentration of 800 μg/mL. The culture medium was replaced with a fresh culture medium every 3 days, and G418 was added at the same concentration each time. Caco-2-SIRT6p-EGFP cells were obtained from this.
Using Caco-2-SIRT6p-EGFP cells, a urolithin was examined for its enhancing effect on the promoter of the sirtuin 6 gene SIRT6. […]
Caco-2-SIRT6p-EGFP cells were seeded in a 96-well plate at 0.6×10^4 cells/well. […] This was followed by aspiration and addition of 100 μL of PBS to each well, and the fluorescence intensity was measured with an IN Cell Analyzer 1000 (GE-Healthcare, Amersham Place, UK). The promoter activity was expressed as a relative ratio to the control activity.

Row | Compound | relative SIRT6 promoter activity (SIRT6 promoter-enhancing activity)
1 | O=c1oc2cc(O)ccc2c2ccc(O)cc12 [urolithin A] | strong SIRT6 promoter-enhancing activity
2 | O=C1OC[C@H]2OC(O)[C@H](O)[C@@H](O)[C@@H]2OC(=O)c2cc(O)c(O)c(O)c2-c2c(O)c(O)c3oc(=O)c4c(c(O)c(O)c5oc(=O)c2c3c54)-c2c1cc(O)c(O)c2O (mixture of isomers) [punicalin] | no or little SIRT6 promoter-enhancing activity
3 | puricalagin | no or little SIRT6 promoter-enhancing activity
4 | C[C@@]12CCc3occc3[C@H]1CC[C@@]13C[C@@H](CC[C@H]12)[C@@](O)(CO)C3 [cafestol] | no or little SIRT6 promoter-enhancing activity

From patent US20240000747A1, “SIRTUIN 6 ACTIVATOR” (DAICEL CORPORATION, priority 2020, published 2024)
